Measured values: patent US9803021B2 (The Regents of the University of California, priority 2012, dated 2017)

Legend:
IRF-4 in U266 = assay: Western blot of IRF-4; type: cell-based, human; settings: U266, 1 nM, 2 days
Experimental: Cells were lysed using RIPA buffer (50 mM Tris HCl pH 8, 150 mM NaCl, 1% NP-40, 0.5% sodium deoxycholate, 0.1% SDS) containing a protease inhibitor cocktail (Roche Applied Science, Indianapolis, Ind.). The cytosolic fractions were reduced with β-mercaptoethanol and separated by SDS-PAGE. Following transfer to nitrocellulose membrane (Whatman, Piscataway, N.J.) and blocking, samples were incubated with the following primary rabbit antibodies: anti-IRF4 (Epitomics, Berlingham, Calif.), anti-glyceraldehyde-3-phosphate dehydrogenase (GAPDH; Sigma), anti-ppRb Ser807/811 (Santa Cruz Biotechnology, Santa Cruz, Calif.), anti-cyclin D (Millipore, Billerica, Mass.), or anti-β tubulin (Abcam, Cambridge, Mass.). Secondary anti-rabbit IgG-HRP (GE Healthcare, Billerica, Mass.) was used and the blots were developed using enhanced chemiluminescence (ECL; Thermo Scientific, Waltham, Mass.).
Cells were lysed using RIPA buffer (50 mM Tris-HCl pH 8, 150 mM NaCl, 1% NP-40, 0.5% sodium deoxycholate, 0.1% SDS) containing a protease inhibitor cocktail (Roche Applied Science). The cytosolic fractions were reduced with β-mercaptoethanol and separated by SDS PAGE. […] Films were imaged using a Multilmage™ Light Cabinet (Alpha Innotech Corp.) and analyzed using NIH Image J. Bands were normalized to a GAPDH loading control and expressed as percentage band intensity of untreated cells.

Daudi cells = assay: MTS cell viability assay; type: cell-based, human; settings: 72 h / 3 day incubation
Experimental: (§1) Percent cell viability was determined using MTS solution (Promega, Madison, Wis.) by measuring absorbance at 490 nm using a Synergy HT Multi-Detection Microplate Reader (BioTek Instruments, Inc., Winooski, Vt.) with untreated cells being 100%. GraphPad Prism (GraphPad Software Inc., La Jolla, Calif.) was used to analyze data by non-linear regression with the log (inhibitor) vs. the response with a variable slope with the IC50 calculated. Data are expressed as a percentage of maximum metabolic activity. The experiments were performed in triplicate.
as §1, with “Metabolic activity” for “Percent cell viability”, “(Promega)” for “(Promega, Madison, Wis.)”, “Instruments Inc.)” for “Instruments, Inc., Winooski, Vt.)”, “Inc.)” for “Inc., La Jolla, Calif.)”, “versus” for “vs.”, “slope.” for “slope with the IC50 calculated.”

OCI-My 5 tumors = assay: OCI-My5 xenograft model in SCID mice; type: in vivo, mouse; settings: OCI-My5 s.c.
Description: Eight mice were included in each group.
Each group consisted of eight mice.

[1] = test system: primary myeloma cells from patients; assay: Treatment of primary myeloma cells from patients (trypan blue / MTT); type: cell-based, human
Experimental: Trypan blue and MTT assays were used to determine the number of viable cells. The percentage of viable recovered cells was calculated based upon the number of viable cells recovered from DMSO-treated control cells, which was arbitrarily designated as 100%.
Percent viable cell recovery was determined by trypan blue staining, with untreated control cells designated as 100%.

anti-CD138-IFNα: Fusion protein: murine B-B4 anti-CD138 variable regions, human IgG1κ constant regions, human IFNα2 fused to the antibody C-terminus via SGGGGS linker
IRF-4 expression (Western blot) (IRF-4 in U266): decrease was similar
cell viability (MTS assay), result in words (Daudi cells): just as effective as recombinant IFNα
survival / protection, result in words (OCI-My 5 tumors; 100 μg i.v. on days 14, 16, 18): significant increase in survival
survival / protection, result in words (OCI-My 5 tumors; 100 μg i.v. on days 14, 16, 18, listed as anti-CD138-IFNα2): greater protection
viability of primary myeloma cells, result in words ([1]; 25 nM, 72 h): little effect
viability of primary myeloma cells, result in words ([1]; 100 nM, 72 hours): significantly reduce cell viability
